Measured values from patent publication US20130183322A1, “IMMUNOSUPPRESSIVE DRUG COMBINATION FOR A STABLE AND LONG TERM ENGRAFTMENT” (YEDA RESEARCH AND DEVELOPMENT CO., LTD., priority 2011, published 2013).

Key:
[1] = tested on: C3H/Hej (H-2Kk) recipient mice; test: Chimerism induction: allogeneic T-depleted BM transplant under non myeloablative conditioning and co-stimulatory blockade; assay type: in vivo
Description: C3H/Hen recipient mice were conditioned with busulfan (2×30 mg/Kg) and T cell debulking with […] anti-CD4 and anti-CD8. Post transplant treatment included […] CTLA4/FC, […] anti-CD48, and 0.1 mg FTY720 administered at the indicated time points.
Non myeloablative conditioning and co-stimulatory blockade Protocol: C3H/Hej (H-2K^k) recipient mice were conditioned with 30 mg/kg IV Busulfex on days −3 and −2 following T cell debulking on day −6 with 300 μg anti-CD4 (Bio Express, clone Gk1.5) and anti-CD8 (Bio Express, cone 53.6.72) antibodies. On day 0, 25×10^6 T-depleted BM cells from Balb/c-Nude (H-2D^d) donors were transplanted and subjected to co-stimulation blockade consisting of 200 μg CTLA4/FC (Chimerigen Laboratories), 250 μg anti-CD48 (Bio Express, clone HM 48) and 0.1 mg FTY720 (Novartis) that was administered as follows: CTLA4/FC and anti-CD48 were injected IP on days 0, 2, 4, 6, 21 and 35 while FTY720 was inoculated per OS for 5 days from day 0 to 5 and from day 6 till day 90 twice a week. Chimerism analysis was monitored every 30 days by FACS analysis. […]
Multilineage Chimerism was performed on donor chimera 70 to 163 days post transplant. […] Fluorescence-activated cell sorting (FACS) analysis was performed using a modified Becton Dickinson FACScan.

[2] = tested on: C57BL/6 (Ly-5.2) recipient mice; test: Determination of the minimal myeloablation with busulphan: donor type chimerism after congenic T cell depleted bone marrow transplant; assay type: in vivo
From the text: Animals: 6-12 week old female mice were used of the following strains: C57BL/6 (B6, recipient, H-2b, Ly-5.2), B6.SJL-Ptprca Pep3b/BoyJ (congenic strain, donor, H-2b, Ly-5.1) Balb/c (donor, H-2d) and C3H/Hen (recipient, H-2k) mice (all purchased from Harlan Laboratories Ltd, Ein Kerem Breeding farm Jerusalem). All mice were housed under specific pathogen free conditions and maintained under conditions approved by the Institutional Animal Care and Use Committee at the Weizmann Institute of Science.
Determination of the minimal myeloablation with Busulphan: Different groups of C57BL/6 (Ly-5.2) recipient mice were conditioned with the following final doses of IV Busulfex (Otsuka America Pharmaceutical, Inc.): 10, 20, 40, 50, 60, 80, and 100 mg/Kg/mouse. The final doses of IV Busulfex were divided in two and administered (IP) on day −2 and −1. On day 0, 25×10^6 T-depleted bone marrow cells isolated from B6.SJL-Ptprca Pep3b/BoyJ (Ly-5.1) donors were transplanted (IV) and the establishment of donor type chimerism was defined 1 and 12 month post transplant in the blood, spleen, and BM by FACS analysis of the congenic donor marker (Ly-5.1). Phenotypic expression analysis of CD8, CD4, CD45/B220 and CD11b markers on the LY-5.1^+ (donor) cells in the spleen and the BM of the donor chimera, was performed 12 month post transplant.
Flow cytometry for chimerism and multilineage analysis: For chimerism analysis, blood mononuclear cells were stained with labeled antibodies specific for Host (H-2K^k-phycoerythrin (PE)) and donor (H-2D^d-fluorescein isothiocyanate (FITC)) MHC class-I antigens. In the congenic model, anti-CD45.2-PE and anti-CD45.1-FITC antibodies were used to distinguish between the host and the donor.
Considering the importance of providing empty niches for successful BM engraftment, the present inventors initially determined the minimal myeloablation with busulphan which induced durable chimerism following infusion of congenic B6-SJL (Ly-5.1) T cell depleted bone marrow (TDBM, 25×10^6) into B6 (Ly-5.2) mice. […] Consequently, the sublethal dose of 60 mg/Kg was selected for further use in all attempts to induce allogeneic chimerism, in conjunction with transient debulking of host lymphocytes by a single infusion of anti-CD4 and anti-CD8 depleting antibodies.

| SMILES | chimerism achieved (in words) ([1]; allogeneic megadose TDBM after busulfan 60 mg/Kg plus anti-CD4/anti-CD8 debulking, post transplant treatment) | mice with donor type chimerism (number of mice) ([1]; two independent experiments, median follow-up 116 days (range 70 to 163) beyond cessation of immune suppression, for the combination, mice with more than 80% chimerism) | donor type chimerism ([2]; at doses higher than 50 mg/Kg (tested 10 to 100 mg/Kg)) | donor type chimerism ([2]; busulphan 50 mg/Kg, congenic B6-SJL (Ly-5.1) TDBM 25x10^6 into B6 (Ly-5.2) mice) [%] | donor type chimerism ([2]; busulphan 60 mg/Kg, congenic B6-SJL (Ly-5.1) TDBM 25x10^6 into B6 (Ly-5.2) mice) [%] | donor type chimerism ([2]; busulphan 100 mg/Kg, congenic B6-SJL (Ly-5.1) TDBM 25x10^6 into B6 (Ly-5.2) mice) [%] |
| --- | --- | --- | --- | --- | --- | --- |
| CCCCCCCCc1ccc(CCC(N)(CO)CO)cc1.Cl [FTY720, 2-amino-2-[2-(4-octylphenyl)ethyl]propane-1,3-diol hydrochloride] | no chimerism | 0 out of 7 | – | – | – | – |
| CS(=O)(=O)OCCCCOS(C)(=O)=O [busulphan] | – | – | above 50% | 40±26 | 66±7 | 75±2 |
